Measured values as given in article PMC11289669, “BAR502/fibrate conjugates: synthesis, biological evaluation and metabolic profile” (Frontiers in Chemistry, 2024).
Values joined by “and” are separate entries in the source; they are usually repeats but may differ in a detail not shown here. Equal entries are not always repeated.

How the values were obtained:
[1] = system: U937 cells; test: Pro-inflammatory gene expression (qRT-PCR) in LPS-activated U937 cells; assay type: cell-based, human; details: LPS 100 ng/mL, 18 h, compound 1 10 μM; for IL-1β mRNA expression / IL-6 mRNA expression: BAR502 and clofibrate 5 and 10 μM
Description: U937 cell line were cultured in RPMI 1640 supplemented with 10% FBS, 1% glutamine, and 1% penicillin/streptomycin and were regularly passaged to maintain exponential growth. After 24 h of starvation cells were classically activated with LPS (100 ng/mL; Sigma-Aldrich, St. Louis, MO), and exposed or not to BAR502, clofibrate and compound 1 at the concentration of 5 and 10 μM for 18 h. At the end of the experiment the cells were recovered. Total mRNA extraction from U937 and 3T3.L1 was performed using Tri-Reagent (Zymo Research) and Direct-zolTM RNA MiniPrep w/Zymo-SpinTM IIC Columns (Zymo Research, Irvine, CA). After purification from genomic DNA using DNase I (Thermo Fisher Scientific, Waltham, MA), 1 μg of RNA from each sample was reverse transcribed using Kit […] Basic (Nippon Genetics, […] 20-μL of reaction volume; 50 ng of cDNA was amplified in a 20-μL solution containing 200 nM each primer and 10 μL of PowerUpTM SYBRTM Green Master Mix (Thermo Fisher Scientific, Waltham, MA). All reactions were performed in triplicate using the following thermal cycling conditions: 3 min at 95°C, followed by 40 cycles of 95°C for 15 s, 56°C for 20 s, and 72°C for 30 s, using a QuantStudio 3 system (Applied Biosystems, Foster City, CA). The relative mRNA expression was calculated accordingly to the ΔCt method. Primers were designed using the software PRIMER3 (http://frodo.wi.mit.edu/primer3/) using published data obtained from the NCBI database. The primer used were as following (forward and reverse): hGAPDH (for […]-1β (for [NT], hIL6 (for [NT] hCXCL2 (for [NT] hTNFα; (for [NT], mAdiponectin (for […]ɤ (for [NT], mCebp (for [NT]

[2] = target: T1, FXR (Homo sapiens, UniProt Q96RI1); test: AlphaScreen coactivator (SRC-1) recruitment assay on FXR; assay type: biochemical; details: for FXR efficacy (% vs. CDCA): AlphaScreen SRC-1 recruitment, compounds at 10 μM, CDCA = 100%; for EC50: AlphaScreen coactivator recruitment, FXR with SRC-1
T1 sequence (Q96RI1 262-486 limits assumed): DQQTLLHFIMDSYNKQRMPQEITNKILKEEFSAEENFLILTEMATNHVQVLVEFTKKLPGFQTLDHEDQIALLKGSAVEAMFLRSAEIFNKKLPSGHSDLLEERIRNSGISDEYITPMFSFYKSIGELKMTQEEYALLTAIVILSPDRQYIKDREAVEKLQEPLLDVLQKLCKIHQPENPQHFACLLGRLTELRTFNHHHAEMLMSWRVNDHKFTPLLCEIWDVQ
Description: Compounds’ ability to mediate cofactor recruitment was evaluated by employing AlphaScreen GST Detection Kit (PerkinElmer). Particularly, FXR agonism was evaluated employing 10 nM FXR-LBD GST-fused (Thermo Scientific) and 30 nM of biotinylated SRC1 peptide ([…]) in the presence of 20 μg/mL donor and acceptor beads and in buffer containing 50 mM Tris-HCl (pH7.4), 20 mM KCl, 1 mM DTT, and 0.1% BSA. For PPARα assay, a buffer containing 50 mM MOPS, 50 mM NaF, 0.05 mM CHAPS, and 0.05% BSA (pH = 7.4) was used, and 20 nM PPARα LBD GST fused (Thermo Scientific) and 60 nM of biotinylated SRC1 peptide were employed. Both acceptor and donor beads were added to reach 20 μg/mL final concentration. Incubations were performed in a final volume of 25 μL employing 384 wells Optiplate and Alpha signal was measured with Envision 2,105 (Perkin Elmer) multimode plate reader. For efficacy, compounds were tested at 10 μM for FXR and 50 μM for PPARα.

[3] = target: T2, GPBAR1 (Homo sapiens, UniProt Q8TDU6); test: GPBAR1 transactivation (CRE-luciferase reporter) assay in HEK-293T cells; assay type: cell-based; details: for Emax: 18 h, read-out: GPBAR1 efficacy (% vs. TLCA); for EC50: transactivation assay, HEK-293T cells
T2 construct: expressed in transfected cells; host or cells: HEK-293T
T2 sequence (Q8TDU6 1-330): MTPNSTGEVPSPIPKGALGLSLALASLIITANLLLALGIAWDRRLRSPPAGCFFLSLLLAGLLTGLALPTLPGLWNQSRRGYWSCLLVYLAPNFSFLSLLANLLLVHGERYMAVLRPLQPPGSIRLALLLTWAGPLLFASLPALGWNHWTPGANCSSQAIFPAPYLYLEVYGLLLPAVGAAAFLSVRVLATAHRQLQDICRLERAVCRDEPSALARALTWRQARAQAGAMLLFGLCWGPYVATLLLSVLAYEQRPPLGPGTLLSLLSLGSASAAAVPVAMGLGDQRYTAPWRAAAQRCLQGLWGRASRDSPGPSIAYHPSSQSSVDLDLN
Description: HepG2 and HEK-293T cells were cultured at 37 °C in minimal essential medium (MEM) and Dulbecco’s Modified Eagle Medium (DMEM) respectively, supplemented with 10% fetal bovine serum, 1% L-glutamine, 100 U/mL penicillin, and 100 μg/mL streptomycin. To investigate FXR-mediated transactivation, the HepG2 cells were transfected with 200 ng of the reporter vector p (hsp27)TK-Luc containing the FXR response element IR1 cloned from the promoter of heat shock protein 27 (hsp27), plus 100 ng pSG5-FXR, 100 ng pSG5-RXR, and 100 ng pGL4.70 Renilla. To evaluate GPBAR1 mediated transactivation, HEK-293T cells were transfected with 200 ng of human pGL4.29 (Promega), a reporter vector containing a cAMP response element (CRE) that drives the transcription of the luciferase reporter gene luc2P, with 100 ng of pCMVSPORT6-human GPBAR1, and with 100 ng of pGL4.70. At 24 h post-transfection, cells were stimulated 18 h with 10 μM TLCA (taurolithocholic acid a GPBAR1 agonist) or CDCA (FXR agonist) and compounds. To calculate the EC50 on FXR and GPBAR1, dose-response curves were performed in HEK-293T cells transfected as described above and then treated with increasing concentrations of compounds (from 0.1 to 50 µM). After treatments, cells were lysed in 100 μL of lysis buffer (25 mM Tris-phosphate, pH 7.8; 2 mM DTT; 10% glycerol; 1% Triton X-100), and 10 μL of cellular lysate was assayed for luciferase activity using the Firfly &Renilla Luciferase assay kit (Biotium). Luminescence was measured using Glomax 20/20 luminometer (Promega). Luciferase activities were assayed and normalized with Renilla activities.

[4] = transactivation on HEK-293T cells, TLCA 10 μM = 100%

| SMILES | IL-1β mRNA expression [1] | IL-6 mRNA expression [1] | CXCL2 mRNA expression [1] | FXR efficacy (% vs. CDCA) [2] | EC50 [2] | Emax [3, 4] | EC50 [3] | GPBAR1 efficacy (% vs. TLCA) [3, 4] |
| --- | --- | --- | --- | --- | --- | --- | --- | --- |
| CC[C@@H]1C2C[C@H](O)CC[C@]2(C)C2CC[C@@]3(C)C(CC[C@@H]3[C@H](C)CCOC(=O)C(C)(C)Oc3ccc(Cl)cc3)C2[C@@H]1O (some centres unmarked) [Compound 1] | greatest efficacy in reducing the expression | greatest efficacy in reducing the expression | the only compound also reducing the expression | 79% and 79.0 ± 3.8% | 3400 ± 1200 nM | 145% | 370 ± 20 nM | 145 ± 10% |
| CC[C@H]1[C@@H](O)[C@@H]2[C@H](CC[C@]3(C)[C@@H]([C@H](C)CCO)CC[C@@H]23)[C@@]2(C)CC[C@@H](O)C[C@@H]12 [BAR502, 6α-ethyl-3α,7α-dihydroxy-24-nor-5β-cholan-23-ol] | reducing the expression of pro-inflammatory cytokines | reducing the expression of pro-inflammatory cytokines | – | 153.0 ± 3.1% | 690 ± 150 nM | 79.5 ± 11.8% | 400 ± 100 nM | – |
